In patent publication US10357526B2, “Compositions for the treatment of infections caused by mite Demodex spp” (PROCAPS S.A., priority 2014, dated 2019):

Test system: Demodex Spp
Test: Evaluation of the solvent action on the survival of mites
Settings: for Average life time of Acaro (mites) in the solvents: neat solvent
Text: Before evaluating the miticide effect of each of the oils, miscibility and safety thereof on mites was studied.

| Compound | Average life time of Acaro (mites) in the solvents [h] | Acaricidal activity of the diluent (within 8 hours) |
| --- | --- | --- |
| CCO [Absolute Ethanol] | 0.03434 | – |
| CCCCCCCC/C=C\CCCCCCCC(=O)OCCCCCCCCCC [Cetiol V, decyl oleate] | 8 | did not have acaricidal activity |
| CCCCCCCCCCCCCC(=O)OC(C)C [Isopropyl Myristate] | 3.37 | – |
| PEG-7 Glycerol Cocoate [Cetiol HE] | 0.08938 | – |
